Consider 28 molecules from article PMC7179439, “Synthesis and Structure-Activity Relationship Studies of Hydrazide-Hydrazones as Inhibitors of Laccase from Trametes versicolor” (Molecules, 2020).

For data set [1], the target named is laccase from Trametes versicolor. In words: Laccase enzyme inhibition assay with syringaldazine as substrate. Format: biochemical. The arrangement: key to The type of inhibition: a: competitive; b: uncompetitive; c: not determined; d: non-competitive. The conditions noted are these: for Ki: 25 °C, pH 5.3, syringaldazine substrate, 6.25% v/v organic co-solvent; for The type of inhibition / type of inhibition: Lineweaver-Burk transformation. As to the method: The activity of laccase was determined using the procedure described by Leonowicz and Grzywnowicz. Basically, a standard reaction mixture contained the enzyme in McIlvaine buffer (1.5 mL, pH 5.3) in the presence or absence of tested compounds (0.1 mL) and substrate – syringaldazine (0.1 mL). Two water-miscible media were tested as suitable co-solvents for hydrazide-hydrazones which are poorly soluble in water. For that purpose, the stability of laccase (40 nM, McIlvaine buffer, pH 5.3) in methanol and DMSO (6.25% v/v) at 25 °C was investigated (see Supplementary Material). The samples containing the enzyme, with a volumetric buffer–co-solvent ratio of 15:1, were withdrawn in different time intervals for 1500 min. A reaction system contained the 1.6 mL of the collected sample and 0.1 mL of syringaldazine (5.9 µM). Laccase activity was determined spectrophotometrically (UV-VIS 1800, Shimadzu, Reinach, Switzerland) by monitoring the changes in absorbance at 525 nm resulted from oxidation of the substrate syringaldazine with an extinction coefficient ε0 = 65000 M^−1·cm^−1 [99]. Kinetic parameters, Km and k3 were determined for two protein concentrations (20 and 40 nM) and with the nine concentrations of syringaldazine (0.59 to 20 µM), using the Michaelis-Menten model, Equation (1):V = Vmax · CS/(Km + CS), k3 = Vmax/CE(1) where Km [µM], k3 [min^–1] – kinetic constants, Vmax – maximal velocity [µM·min^–1], CS – substrate concentration [µM], CE – enzyme concentration [µM].
The parameters of the function were estimated using the nonlinear least square method in Matlab (The Mathworks, R2019a Version 9.6, academic licence). The method was used simultaneously for datasets obtain for different enzyme concertation. The common minimum of error function was found for all considered datasets resulting in one common estimate of each model parameter. The goodness of fit was assessed using the coefficient of determination (R^2); the sum of squared errors (SSE) and root mean squared error (RMSE). The 25 hydrazide-hydrazones, 4-hydroxybenzoic acid (control, 4-HBA), 4-hydroxybenzohydrazide (4a – 4-HBAH), and sodium azide (control) were tested against laccase in the standard reaction mixture. Prior to the substrate addition, the laccase and tested compound were pre-incubated for 10 min at 25 °C. At least three inhibitor concentrations were used in each experiment. All measurements were performed in triplicate. To determine the type of inhibition Lineweaver–Burk transformation was used applying the following equations for competitive (2), uncompetitive (3) and non-competitive model (4). The parameters of these equations were estimated using the linear least square method. 1/V = Km/Vmax · (1 + Ci/Ki) · 1/CS + 1/Vmax(2) 1/V = Km/Vmax · 1/CS + 1/Vmax · (1 + Ci/Ki)(3) 1/V = Km/Vmax · (1 + Ci/Ki) · 1/CS + 1/Vmax · (1 + Ci/Ki)(4) where Km [µM]—Michaelis-Menten constant, Vmax—maximal velocity [µM·min^–1], Ki—inhibition constant [µM], CS—substrate concentration [µM], Ci—inhibitor concentration [µM].

SMILES strings stand for the structures. Values joined by “and” are separate entries in the source; they are usually repeats but may differ in a detail not shown here. Equal entries are not always repeated.

The Ki is a measure of affinity in units of concentration, obtained from inhibition or displacement. As to `O=C(N/N=C/c1ccccc1)c1ccc(O)cc1` [1a, 4-Hydroxy-N’-[(E)-benzylidene]benzohydrazide], in data set [1], the affinity corresponds to a Ki of 1470 ± 58 µM and the “The type of inhibition” value is “a”.
For orientation: melting point means the temperature of the solid-liquid transition. The molecule `COc1ccc(C(=O)N/N=C/c2cccc(-c3ccccc3)c2O)cc1` [2h, 4-Methoxy-N’-[(E)-2-hydroxy-3-phenyl-benzylidene]benzohydrazide] came in with a melting point of 240 to 242.5 °C. In data set [1], this molecule had a Ki of at least 1000 µM.
On to `O.O=C(N/N=C/c1cccc(O)c1)c1ccc(O)cc1` [1f, 4-Hydroxy-N’-[(E)-(3-hydroxyphenyl)methylidene]benzohydrazide monohydrate], for which, in data set [1], the inhibition constant Ki was 2400 ± 334 µM and the “The type of inhibition” value is reported as “a”.
For the molecule `Cc1ccc(/C=N/NC(=O)c2ccc(O)cc2)cc1` [1c, 4-Hydroxy-N’-[(E)-(4-methylphenyl)methylidene]benzohydrazide monomethanolate], in data set [1], the affinity corresponds to a Ki of 251 ± 26 µM, the “The type of inhibition” value is listed as “a” and the “type of inhibition” value is recorded as “competitive”.
Take `O=C(N/N=C/c1ccc(O)cc1O)c1ccc(O)cc1` [2c, 4-Hydroxy-N’-[(E)-(2,4-dihydroxyphenyl)methylidene]benzohydrazide]: the melting point is 294 °C (dec.). Moreover, in data set [1], the “inhibitory potency towards laccase” value is “practically inactive”, the Ki came out at 939 ± 30 µM, the “The type of inhibition” value was “b” and the “type of inhibition” value is given as “uncompetitive”.
Molecule `Cc1ccc(C(C)C)c(O)c1/C=N/NC(=O)c1ccc(O)cc1` [3e, 4-Hydroxy-N’-[(E)-(2-hydroxy-3-isopropyl-6-methylphenyl)methylidene]benzohydrazide] showed a melting point of 258.5 to 260.5 °C. The molecule further yielded a Ki in data set [1] of at least 1000 µM.
With `O=C(N/N=C/c1ccc(O)cc1)c1ccc(O)cc1` [1g, 4-Hydroxy-N’-[(E)-(4-hydroxyphenyl)methylidene]benzohydrazide], in data set [1], the Ki worked out at 638 ± 35 µM and the “The type of inhibition” value is reported as “b”.
Molecule `O=C(N/N=C/c1cccc(-c2ccccc2)c1O)c1ccc(O)cc1` (hydrate or solvate) [2a, 4-Hydroxy-N’-[(E)-(2-hydroxy-3-phenyl-phenyl)methylidene]benzohydrazide monomethanolate] had a melting point of 215 to 218 °C.
In the case of `Cc1cc(/C=N/NC(=O)c2cccc(O)c2)c(O)c(C(C)(C)C)c1` [3g, 3-Hydroxy-N’-[(E)-(3-tert-butyl-2-hydroxy-5-methylphenyl)methylidene]benzohydrazide], the melting point lay within 240 to 242.5 °C. For the same molecule, in data set [1], the affinity, expressed as Ki, was 32 ± 8 µM; the “The type of inhibition” value is “d”; the “type of inhibition” value was “non-competitive”.
The molecule `COc1cccc(/C=N/NC(=O)c2ccc(O)cc2)c1` (hydrate or solvate) [1i, 4-Hydroxy-N’-[(E)-(3-methoxyphenyl)methylidene]benzohydrazide] showed a melting point of 210 to 212 °C.
With `O=C(N/N=C/c1ccccc1S(=O)(=O)[O-])c1ccc(O)cc1.[Na+]` [1d, Sodium 2-{(E)-[2-(4-hydroxybenzoyl)hydrazinylidene]methyl}benzenesulfonate], the melting point was 251 °C (dec.). The Ki in data set [1] was at least 2400 µM.
On to `COc1cccc(OC)c1/C=N/NC(=O)c1ccc(O)cc1` [2f, 4-Hydroxy-N’-[(E)-(2,6-dimethoxyphenyl)methylidene]benzohydrazide], for which the melting point fell in the range of 214.5 to 216 °C. In data set [1], the “inhibitory potency towards laccase” value is “practically inactive” and the Ki is at least 1000 µM.
As for `O=C(N/N=C/c1ccccc1O)c1ccc(O)cc1` [1e, 4-Hydroxy-N’-[(E)-(2-hydroxyphenyl)methylidene]benzohydrazide], in data set [1], the Ki came to 674 ± 10 µM, the “The type of inhibition” value is recorded as “a” and the “type of inhibition” value is given as “competitive”.
Regarding `O=C(O)c1ccc(O)cc1` [4-HBA, 4-hydroxybenzoic acid, reference compound], in data set [1], the “inhibitory potency towards laccase” value was “no inhibitory potency” and the Ki is at least 2400 µM.
`O=C(N/N=C/c1cc(Br)ccc1O)c1ccc(O)cc1` [2d, 4-Hydroxy-N’-[(E)-(5-bromo-2-hydroxyphenyl)methylidene]benzohydrazide] had a melting point of 276 to 278 °C. The molecule also registered a Ki in data set [1] of at least 1000 µM.
`CC(C)(C)c1cc(/C=N/NC(=O)c2ccc(O)cc2)c(O)c(C(C)(C)C)c1` [3c, 4-Hydroxy-N’-[(E)-(3,5-di-tert-butyl-2-hydroxyphenyl)methylidene]benzohydrazide] registered a melting point of 274.5 to 275.5 °C. Further, in data set [1], the Ki was found to be 17.9 ± 1.3 µM and the “The type of inhibition” value is recorded as “b”.
With `Cc1cc(CO)cc(/C=N/NC(=O)c2ccc(O)cc2)c1O` [3b, 4-Hydroxy-N’-[(E)-(5-hydroxymethyl-3-methyl-2-hydroxyphenyl)methylidene]benzohydrazide], the melting point is 266 °C (dec.). In data set [1], this molecule gave a Ki of at least 1000 µM.
Consider `CC(C)(C)c1cccc(/C=N/NC(=O)c2ccc(O)cc2)c1O` [2b, 4-Hydroxy-N’-[(E)-(3-tert-butyl-2-hydroxyphenyl)methylidene]benzohydrazide], for which the melting point fell in the range of 240 to 242 °C. Also, in data set [1], the affinity corresponds to a Ki of 24 ± 5.9 µM, the “The type of inhibition” value was “a” and the “type of inhibition” value is “competitive”.
As for `Cc1cc(/C=N/NC(=O)c2ccc(O)cc2)c(O)c(C(C)(C)C)c1` [3d, 4-Hydroxy-N’-[(E)-3-tert-butyl-2-hydroxy-5-methylbenzylidene]benzohydrazide], the melting point is 261 to 263 °C and 261 to 262 °C. For the same molecule, in data set [1], the affinity, expressed as Ki, was 26.4 ± 3.4 µM; the “The type of inhibition” value is given as “a”; the “type of inhibition” value is “competitive”.
`COc1cc(O)c(/C=N/NC(=O)c2ccc(O)cc2)c(OC)c1` [3f, 4-Hydroxy-N’-[(E)-(2-hydroxy-4,6-dimethoxyphenyl)methylidene]benzohydrazide]: the melting point was in the range of 231.5 to 234.5 °C. The molecule also displayed a Ki in data set [1] of at least 1000 µM.
In turn, `COc1cccc(O)c1/C=N/NC(=O)c1ccc(O)cc1` [2e, 4-Hydroxy-N’-[(E)-(6-methoxy-2-hydroxyphenyl)methylidene]benzohydrazide] had a melting point of 256.5 to 257.5 °C. The same molecule returned a Ki in data set [1] of at least 1000 µM.
In the case of `COc1cccc(/C=N/NC(=O)c2ccc(O)cc2)c1` [1i, 4-Hydroxy-N’-[(E)-(3-methoxyphenyl)methylidene]benzohydrazide], in data set [1], affinity was put at a Ki of 416 ± 1.5 µM, the “The type of inhibition” value is given as “a” and the “type of inhibition” value is “competitive”.
With `COc1ccccc1/C=N/NC(=O)c1ccc(O)cc1` [1h, 4-Hydroxy-N’-[(E)-(2-methoxyphenyl)methylidene]benzohydrazide], in data set [1], the Ki came out at 1060 ± 18 µM and the “The type of inhibition” value is “a”.
`COc1cc(/C=N/NC(=O)c2ccc(O)cc2)ccc1O` [2g, 4-Hydroxy-N’-[(E)-(4-hydroxy-3-methoxyphenyl)methylidene]benzohydrazide] showed a melting point of 218.5 to 220 °C. Moreover, in data set [1], the Ki is 251 ± 38 µM, the “The type of inhibition” value is listed as “a” and the “type of inhibition” value is listed as “competitive”.
For `O=C(N/N=C/CCc1ccccc1)c1ccc(O)cc1` [1b, 4-Hydroxy-N’-[(E)-3-phenylpropylidene]benzohydrazide], the melting point lay within 243.5 to 244 °C. Besides, in data set [1], affinity was put at a Ki of 1920 ± 163 µM and the “The type of inhibition” value is listed as “b”.
Regarding `COc1ccc(C(=O)NN)cc1` [4b, reference compound], in data set [1], the “inhibitory potency towards laccase” value was “no inhibitory potency” and the Ki is at least 2400 µM.
In the case of `Cc1cc(/C=N/NC(=O)c2ccc(O)cc2)c(O)c(CO)c1` [3a, 4-Hydroxy-N’-[(E)-2-hydroxy-3-hydroxymethyl-5-methyl-benzylidene]benzohydrazide], the melting point lay in the range of 229 to 230 °C. In addition, the Ki in data set [1] is at least 1000 µM.
For the molecule `O=C(N/N=C/c1cccc(-c2ccccc2)c1O)c1ccc(O)cc1` [2a, 4-Hydroxy-N’-[(E)-(2-hydroxy-3-phenyl-phenyl)methylidene]benzohydrazide monomethanolate], in data set [1], the Ki is 25.3 ± 6.9 µM, the “The type of inhibition” value is on record as “a” and the “type of inhibition” value is on record as “competitive”.
